Test results: article PMC12040169 (PLOS Biology, 2025)

Assay: in vitro
Conditions: human, hela cells, % viability

| SMILES | viability at 28.5 h, 10 µM [%] | viability at 28.5 h, 10 µM (bulk resorufin, single well) [%] |
| --- | --- | --- |
| CCCc1nn(CC(=O)OC)c(=O)c2cc3ccsc3n12 [CBK284144] | 98.7 |  |
| CCCC/C=C/c1cccc(Nc2cccnc2)n1 [CBK037645] | 103 |  |
| CC(Sc1nc(-c2ccccc2)nc2ccccc12)C(=O)Nc1ccccc1C(F)(F)F (centres unmarked) [CBK265795] | 103 |  |
| COc1ccc2[nH]c3c(c2c1)CCNC31CCCN(Cc2ccc(OC(F)(F)F)cc2)C1 (centres unmarked) [CBK039387] | 113 |  |
| Cc1cc(C)c(NC(=O)CSCc2cc(O)[nH]n2)c(Cl)c1 [CBK268302] | 93.8 |  |
| Cc1nn(C)c(Cl)c1CN1CCCC(CCC(=O)N2CCN(C)CC2)C1 (centres unmarked) [CBK307716] | 92.5 |  |
| COCC(=O)N1c2ccccc2CC[C@@H]1C(=O)OC [CBK285472] | 103 |  |
| COc1ccc(-c2nc3cc(OC)ccc3[nH]2)cc1 [CBK000126] | 90.5 |  |
| CCOC(=O)C(CNC(=O)c1c(CC)noc1C)Cc1ccccc1 (centres unmarked) [CBK305961] | 90.8 |  |
| Cc1ccccc1-c1noc(C(C)NC(=O)C2(Cn3ccnc3)CC2)n1 (centres unmarked) [CBK306684] | 99.7 |  |
| CCCCC12CN3CC(C)(CN(C1)C31C(=O)N(C)c3ccc(C)cc31)C2=O (centres unmarked) [CBK267286] | 96.1 |  |
| Brc1n[nH]c2nc(NCc3ccco3)ncc12 [CBK022327] | 91.6 |  |
| NCC1CCN(c2cc(C(F)(F)F)c3scc(C(=O)NCCC4=CCCCC4)c3n2)CC1 [CBK028475] | 83.2 |  |
| Cc1ccc(OCC(=O)NC(=S)Nc2cc(-c3nc4ncccc4o3)ccc2Cl)cc1 [CBK265214] | 103 |  |
| CCN(CC)CCNC(=O)N(CC)Cc1ccncc1 [CBK155151] | 105 |  |
| Sc1nnc(COc2ccccc2)n1/N=C/c1ccc(-c2ccccc2)cc1 [CBK265269] | 117 |  |
| CC1=NN(c2ccc([N+](=O)[O-])cc2)C(=O)/C1=C/NCCN1CCN(C(=O)c2ccc(F)cc2)CC1 [CBK262920] | 95.1 |  |
| C/C(=N\NC(=O)CSCc1ccccc1Br)c1cccc([N+](=O)[O-])c1 [CBK026344] | 95.9 |  |
| Cc1ccc(-c2csc(NC(=O)c3c(C)noc3C)c2C(=O)NC2CC2)cc1 [CBK268141] | 95.1 |  |
| COc1ccc(CCN(C(C)=O)C2CC(=O)N(c3ccccc3)C2=O)cc1OC (centres unmarked) [CBK262349] | 89.5 |  |
| C=CCNc1nccnc1-c1ccc(CO)cc1 [CBK036870] | 91.4 |  |
| CCOC(=O)c1sc(-c2ccc(Br)cc2)nc1O [CBK075087] | 103 |  |
| O=C(O)CCC(=O)N1N=C2C(=Cc3ccc(F)cc3)CCCC2C1c1ccc(F)cc1 (centres unmarked) [CBK296066] | 93 |  |

| SMILES | viability at 28.5 h, 10 µM [%] | viability at 28.5 h, 10 µM (bulk resorufin, single well) [%] |
| --- | --- | --- |
| COc1cccc(C(=O)N2CCC(NC(=O)c3ccc(C(F)(F)F)cc3)CC2)c1 [CBK155022] | 104 |  |
| CC(Oc1ccc(C#N)cc1)C(=O)NCC(C)(C)N1CCOCC1 (centres unmarked) [CBK304066] | 90 |  |
| CC(C)Nc1nccnc1Sc1ccccc1O [CBK089492] | 92.1 |  |
| CN(C(=O)c1ccc(Cl)c(Cl)c1)[C@H]1CCC[C@H]1N1CCCC1 [CBK003411C] |  | 90 |
| CCN(CC)CCNC(=O)CN1CCCC1=O [CBK261312] |  | 84.6 |
| CC(C)C(=O)N1CCC(OCc2ccc(-c3ccc(C(=O)N(C)C)cc3)cc2S(C)(=O)=O)CC1 [CBK155921] | 102 |  |
| CCC1=NNC(=O)C(CC(=O)Nc2ccccc2)c2cc(OC)c(OC)cc21 (centres unmarked) [CBK009158] | 92.4 |  |
| COCCNC(=O)c1cc(-c2ccccc2C)nc2c1cnn2C(C)C [CBK305392] | 111 |  |
| CCN(CC)C(=O)[C@@H](C)C1CC[C@@]2(C)CC[C@H](NC(=O)C3CC3)[C@@H](C)[C@@H]2[C@H]1O (some centres unmarked) [CBK289443] | 97.5 |  |
| N#Cc1cccc(Cn2cc(NC(=O)NCCc3cccs3)cn2)c1 [CBK043824] | 94.9 |  |
| CC1=C[C@@H](CNC(=O)NC(C)C)[C@H](C(C)C)C[C@H]1CC(=O)N1CCN(C)CC1 [CBK289047] | 100 |  |
| COc1ccc(C(=O)C2=C(O)C(=O)N(CCN(C)C)C2c2cccc([N+](=O)[O-])c2)cc1C (centres unmarked) [CBK264875] | 85.2 |  |
| OC(CNCCc1ccccc1)COc1c(Br)cccc1Br (centres unmarked) [CBK003071] | 94 |  |
| CCN(CC)C(=O)CN1CCN(c2nccnc2OC)CC1 [CBK084221] | 83.9 |  |
| CN(C)CCCN1CCCC2(CCN(C(=O)c3cc(F)c(F)cc3F)C2)C1 (centres unmarked) [CBK132005] | 96.5 |  |
| N=C1OC2CSCC2N1C(=O)Cc1ccccc1Cl (centres unmarked) [CBK284516] | 106 |  |
| Fc1ccccc1-c1nccnc1NCc1cccs1 [CBK038088] | 106 |  |
| COc1ccccc1C(=O)N1CCC(c2nc(C)n3ccccc23)C1 (centres unmarked) [CBK282221] | 88.4 |  |
| CCOc1cc(C)c(Cl)cc1S(=O)(=O)NCc1ccncc1 [CBK269954] | 85.8 |  |
| COc1cc2c(cc1CN(Cc1ccc3c(c1)OCO3)CC(C)O)CCC2 (centres unmarked) [CBK286473] | 91.6 |  |
| N#CCCN(C(=O)NCc1ccc(F)cc1)C1CCCCC1 [CBK156372] | 86.5 |  |
| Cc1ccc(C(=O)NNC(=O)/C=C\C(=O)O)cc1 [CBK261842] | 86.9 |  |
| CCC(CO)Nc1nccnc1-c1ccoc1 (centres unmarked) [CBK088756] | 100 |  |

| SMILES | viability at 28.5 h, 10 µM [%] | viability at 28.5 h, 10 µM (bulk resorufin, single well) [%] |
| --- | --- | --- |
| COc1ccccc1NC(=O)C(=O)NCc1cccnc1 [CBK287724] | 97.5 |  |
| C=C(C)Cn1c(SCC(C)C)nnc1-c1ccccc1OC [CBK200071] | 91.5 |  |
| N#CCCN(Cc1cccnc1)C(=O)Cc1noc2ccccc12 [CBK304001] | 113 |  |
| CCN(Cc1ccco1)C(=O)Cn1c(=O)n(C)c2ncccc21 [CBK282390] | 99.3 |  |
| COc1ccc(CCN2C(=O)/C(=C\c3c(NCCO)nc4c(C)cccn4c3=O)SC2=S)cc1 [CBK265566] | 79.9 |  |
| O=C(Nc1cccnc1)c1cc(C(=O)c2ccc(Cl)cc2Cl)c[nH]1 [CBK107406] | 93.7 |  |
| O=C(O)c1cccc(CSc2nnc(Cc3ccccc3)o2)c1 [CBK268060] | 92 |  |
| COc1ccc(NS(=O)(=O)c2cccc(Cl)c2C)c(C(=O)NCc2ccccc2)c1 [CBK113953] | 85.3 |  |
| O=C(O)c1cccc(Cn2ccc3c(F)cccc32)c1 [CBK003453] | 95.9 |  |
| CCSC(C)CC1C/C(=N/O)c2c(C)noc2C1 (centres unmarked) [CBK021455] | 88.4 |  |
| COc1ccc(-c2csc(/C(C#N)=C/Nc3ccc(S(=O)(=O)Nc4nccs4)cc3)n2)cc1 [CBK262374] | 94.6 |  |
| CN1CCCN(c2ccc(NS(=O)(=O)c3ccc(F)cc3F)c3ccccc23)CC1 [CBK001499C] | 64.8 |  |
| COc1ccccc1-c1ncc(OCC(F)(F)F)nc1NC(=O)c1ccco1 [CBK145277] | 98.3 |  |
| O=C(O)CCc1ccc(-c2ccc(F)cc2)n1NC(=O)c1ccco1 [CBK268853] | 90.7 |  |
| N/C(CS(=O)(=O)Cc1ccc(F)cc1)=N/O [CBK010956] | 89.2 |  |
| CCCCOc1ccc(OC(=O)C2CCN(CCCC)CC2)cc1 [CBK122680] | 112 |  |
| O=C(c1cccc(-c2nnc(-c3ccccc3)o2)c1)N1CCN(C(=O)c2ccco2)CC1 [CBK269809] | 78.5 |  |
| Nc1nc(SCC(=O)NCCCO)nc2sc3c(c12)CCC3 [CBK264952] | 88.7 |  |
| CSCC[C@H](NC(=O)c1cccc2c1-c1ccccc1C2=O)C(=O)O [CBK286781] | 95.5 |  |
| Cc1cc(I)ccc1NC(=O)CCN1C(=O)c2cccc([N+](=O)[O-])c2C1=O [CBK263128] | 88.3 |  |
| Cc1cc(CC(=O)NCc2c(-c3ccccc3)noc2C)on1 [CBK144090] | 92.2 |  |
| CCc1nnc(NS(=O)(=O)c2ccc(Nc3ccc([N+](=O)[O-])c4nonc34)cc2)s1 [CBK261442] | 92.3 |  |
| CCN(CC)CCN/C=C1/C(=O)NC(=O)N(Cc2ccccc2)C1=O [CBK261624] |  | 88.9 |

| SMILES | viability at 28.5 h, 10 µM [%] | viability at 28.5 h, 10 µM (bulk resorufin, single well) [%] |
| --- | --- | --- |
| Cc1nn(C(C)C(=O)Nc2cc(C(F)(F)F)ccc2Cl)c(C)c1[N+](=O)[O-] (centres unmarked) [CBK268697] | 88.5 |  |
| CSc1nnc(CCCNc2cccc(C#N)n2)n1CC(C)C [CBK306449] | 96.8 |  |
| Cc1occc1SCC(=O)Nc1ccc(CN2CCOCC2)cc1 [CBK306453] | 89.9 |  |
| CC(=O)Nc1ccc(Sc2cnccn2)cc1 [CBK085838] | 89.7 |  |
| O=C(O)c1ccccc1-c1ccc(/C=C2\S/C(=N\c3ccccc3)N(c3ccccc3)C2=O)o1 [CBK262566] | 101 |  |
| O=C(CCSc1c(Cl)cccc1[N+](=O)[O-])Nc1ccc(Br)c2cccnc12 [CBK266777] | 101 |  |
| NS(=O)(=O)c1ccc(CCNC(=O)C2CC2)cc1 [CBK288407] | 107 |  |
| O=C1CSC(c2ccc(F)cc2Cl)c2c[nH]nc2N1 (centres unmarked) [CBK287935] | 91.4 |  |
| Cn1nccc1CN1CCCC(COc2ccc(F)cc2)C1 (centres unmarked) [CBK281899] | 95.2 |  |
| O=C(O)CCc1ccc(-c2ccccc2)n1CC1CCCO1 (centres unmarked) [CBK267955] | 102 |  |
| CN(C)CCNC(=O)c1sc2ccccc2c1CC1CCCCCN1C(=O)C1CCC1 (centres unmarked) [CBK286096] | 105 |  |
| Cc1cc(CC(=O)N2CCC(Cn3cncn3)(C3CCCCC3)CC2)on1 [CBK136795] | 88.8 |  |
| CC(C)(C)c1ccc(C(=O)NCCNC(=O)c2nonc2N)cc1 [CBK268869] | 89.5 |  |
| NC(CC(=O)O)c1ccc(OCCc2ccccc2)cc1 (centres unmarked) [CBK287053] | 91.6 |  |
| CCOC(=O)C1CCCN(CCC(=O)Nc2cccc(F)c2)C1 (centres unmarked) [CBK264275C] | 107 |  |
| COC(=O)/C=C/c1cn(C2OC(CO)C(O)C2O)c(=O)[nH]c1=O (centres unmarked) [CBK201339] | 106 |  |
| O=C(CN1CCN(C2CCCC2)C(=O)C1)N1CCCc2ccccc21 [CBK282132] | 81.7 |  |
| O=C(Nc1ccc(OCc2nc3ccccc3s2)cc1)c1cccc(I)c1 [CBK267843] | 119 |  |
| Cn1c2c(c3ccccc31)CCOC21CCNCC1 [CBK081142] | 99.3 |  |
| CCC(C)c1ccc(NC(S)=NCc2ccccn2)cc1 (centres unmarked) [CBK266966] | 89.2 |  |
